Experimental findings from patent publication US11401246B2, “Triazole glycolate oxidase inhibitors” (CANTERO THERAPEUTICS, INC., priority 2018, dated 2022) are described below.

Structures can show the parent of a compound that is named as a salt.

The first assay concerns the target T1, human glycolate oxidase (hGO) (Homo sapiens, UniProt Q9UJM8).
T1 construct: His-tag (6 histidines, pET-15b) (N); made in house; host or cells: E. coli BL21 (DE3)
T1 sequence (Q9UJM8 1-370): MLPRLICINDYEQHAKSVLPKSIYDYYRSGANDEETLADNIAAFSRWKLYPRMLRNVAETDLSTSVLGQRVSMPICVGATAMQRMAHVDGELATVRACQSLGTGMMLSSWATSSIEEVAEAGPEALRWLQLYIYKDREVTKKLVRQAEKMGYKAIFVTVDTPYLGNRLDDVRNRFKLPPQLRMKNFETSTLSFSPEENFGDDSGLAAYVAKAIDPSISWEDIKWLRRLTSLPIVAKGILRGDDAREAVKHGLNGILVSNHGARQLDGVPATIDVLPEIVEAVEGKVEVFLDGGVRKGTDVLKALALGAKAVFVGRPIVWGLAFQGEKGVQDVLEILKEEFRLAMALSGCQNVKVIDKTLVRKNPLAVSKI
Description: In vitro inhibition of human glycolate oxidase (enzymatic assay, HRP-coupled Trinder reaction).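 As to % Inhibition: values are IC50 potency bins despite the % Inhibition label.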 It is filed as biochemical.
Details: not given
From the text: The catalytic reactions used for assaying glycolate oxidase activity in the presence of compounds according to the present disclosure are outlined in FIG. 2. Glycolate oxidase (GO)-catalyzed conversion of glycolate to glyoxylate (top reaction), with the concomitant reduction of the cofactor flavin mononucleotide (FMN), uses molecular oxygen (O2) for recovering its oxidative state, releasing hydrogen peroxide (H2O2). The Trinder reaction (bottom reaction), in which horseradish peroxidase (HRP) uses hydrogen peroxide, 4-aminoantipyrine and a phenol derivative (sulphonated DCIP) to generate a quinoneimine dye that is spectrophotometrically measured.
Human glycolate oxidase (hGO) expression. BL21 (DE3) E. coli transformed with recombinant pET-15b expression vector with the N-terminal His-tag human Hao1 cDNA was grown in LB medium in the presence of 0.1 mg/ml ampicillin. For purification of recombinant human glycolate oxidase (hGO) expressed in BL21 E. coli, bacteria pellets were thawed and re-suspended in 2 ml lysis buffer (50 mM NaH2PO4, 300 mM NaCl, 10 mM imidazole, 50 μM FMN, pH 7.5), and then treated for 30 minutes with 1 mM PMSF for protease inhibition, 0.1% Triton X-100 and 0.2 mg/ml lysozyme to break cellular membranes. After sonication, cells were centrifuged and the supernatant containing the total cellular extract (pre-column fraction) was loaded into a Ni-NTA agarose column and incubated for 30 minutes at 4° C. to allow binding of the 6 histidine tail of recombinant GO protein to the nickel ions. The column was washed with two bed volumes of lysis buffer with 20 mM imidazole to eliminate unbound proteins (wash fraction). GO was eluted using the same buffer with 300 mM imidazole. Fraction containing purified GO was dialyzed against 300 ml of dialysis buffer (50 mM NaH2PO4, 300 mM NaCl, pH 7.5) at 4° C. in agitation overnight, and then kept at 4° C. in darkness. Protein were quantified by the bicinchoninic acid (BCA) assay.
Enzymatic assays. Enzymatic activity of hGO was determined in the presence of glycolate as substrate (40 mM glycolic acid) and phosphate buffer (50 mM KPO4, 0.1 mM EDTA, pH 7). The production of glyoxylate was indirectly measured by the quantification of hydrogen peroxide formed during the first oxidation reaction. […] Enzymatic activity was calculated at 1 minute after initiation of the Trinder reaction.
Consider `O=C(O)c1nn[nH]c1Oc1ccc(C2CCCC2)cc1` [Example 69, 5-(4-cyclopentylphenoxy)-1H-1,2,3-triazole-4-carboxylic Acid], for which the IC50 lay within 100 to 200 nM.

In turn, `N#Cc1cccc(-c2ccc(Oc3[nH]nnc3C(=O)O)cc2)c1` [Example 20, 5-((3′-cyano-[1,1′-biphenyl]-4-yl)oxy)-1H-1,2,3-triazole-4-carboxylic Acid] returned an IC50 of 100 to 200 nM.

For `O=C(O)c1nn[nH]c1Oc1ccc(Cl)c(F)c1` [Example 8, 5-(4-chloro-3-fluorophenoxy)-1H-1,2,3-triazole-4-carboxylic Acid], the IC50 is 100 to 200 nM.

Take `O=C(O)c1nn[nH]c1Oc1ccccc1` [Example 45, 5-phenoxy-1H-1,2,3-triazole-4-carboxylic Acid]: the IC50 was greater than 200 nM.

Staying with this assay, now noted: recombinant hGO, 40 mM glycolic acid, pH 7, read at 515 nm, 1 minute after initiation of Trinder reaction; read-out: % Inhibition.
Regarding `COc1cc(Oc2[nH]nnc2C(=O)O)ccc1Br` [Example 89, 5-(4-bromo-3-methoxyphenoxy)-1H-1,2,3-triazole-4-carboxylic Acid], the IC50 is less than 100 nM.

In the case of `N#Cc1ccc(-c2cccc(Oc3[nH]nnc3C(=O)O)c2)cc1` [Example 64, 5-((4′-cyano-[1,1′-biphenyl]-3-yl)oxy)-1H-1,2,3-triazole-4-carboxylic Acid], the IC50 lay in the range of 100 to 200 nM.

As for `O=C(O)c1nn[nH]c1Oc1ccc(N2CCNCC2)cc1` [Example 2, 5-(4-(piperazin-1-yl)phenoxy)-1H-1,2,3-triazole-4-carboxylic Acid], the IC50 was less than 100 nM.

In the case of `O=C(O)c1nn[nH]c1Oc1ccc(Br)cc1F` [Example 51, 5-(4-bromo-2-fluorophenoxy)-1H-1,2,3-triazole-4-carboxylic Acid], the IC50 was less than 100 nM.

As to `O=C(O)c1nn[nH]c1Oc1ccc(-c2ccsc2)cc1` [Example 23, 5-(4-(thiophen-3-yl)phenoxy)-1H-1,2,3-triazole-4-carboxylic Acid], the IC50 was less than 100 nM.

For the compound `Cc1ncc(-c2ccc(Oc3[nH]nnc3C(=O)O)cc2)cn1` [Example 13, 5-(4-(2-methylpyrimidin-5-yl)phenoxy)-1H-1,2,3-triazole-4-carboxylic Acid], the IC50 is less than 100 nM.

Consider `Cc1ccc(Oc2[nH]nnc2C(=O)O)c(C)n1` [Example 67, 5-((2,6-dimethylpyridin-3-yl)oxy)-1H-1,2,3-triazole-4-carboxylic Acid], for which the IC50 is greater than 200 nM.

With `O=C(O)c1nn[nH]c1Oc1cccc(Br)c1` [Example 7, 5-(3-bromophenoxy)-1H-1,2,3-triazole-4-carboxylic Acid], the IC50 was in the range of 100 to 200 nM.

For the compound `O=C(O)c1nn[nH]c1Oc1ccc(-c2ccnc(F)c2)cc1` [Example 92, 5-(4-(2-fluoropyridin-4-yl)phenoxy)-1H-1,2,3-triazole-4-carboxylic Acid], the IC50 is less than 100 nM.

Consider `Cc1cc(F)nc(-c2ccc(Oc3[nH]nnc3C(=O)O)cc2)c1` [Example 74, 5-(4-(6-fluoro-4-methylpyridin-2-yl)phenoxy)-1H-1,2,3-triazole-4-carboxylic Acid], for which the IC50 was less than 100 nM.

`Cc1c(-c2ccc(Oc3[nH]nnc3C(=O)O)cc2)ccnc1F` [Example 75, 5-(4-(2-fluoro-3-methylpyridin-4-yl)phenoxy)-1H-1,2,3-triazole-4-carboxylic Acid]: the IC50 was less than 100 nM.

As for `O=C(O)c1nn[nH]c1Oc1ccc(-c2ccn[nH]2)cc1` [Example 12, 5-(4-(1H-pyrazol-5-yl)phenoxy)-1H-1,2,3-triazole-4-carboxylic Acid], the IC50 is less than 100 nM.

For the compound `O=C(O)c1nn[nH]c1Oc1cccc(-c2ccc(C(F)(F)F)cc2)c1` [Example 114, 5-((4′-(trifluoromethyl)-[1,1′-biphenyl]-3-yl)oxy)-1H-1,2,3-triazole-4-carboxylic Acid], the IC50 lay in the range of 100 to 200 nM.

For `Cc1cncc(-c2ccc(Oc3[nH]nnc3C(=O)O)cc2)c1` [Example 80, 5-(4-(5-methylpyridin-3-yl)phenoxy)-1H-1,2,3-triazole-4-carboxylic Acid], the IC50 was less than 100 nM.

Consider `O=C(O)c1nn[nH]c1Sc1ccc(F)cc1` [Example 47, 5-((4-fluorophenyl)thio)-1H-1,2,3-triazole-4-carboxylic Acid], for which the IC50 lay in the range of 100 to 200 nM.

For `Cc1ccc(-c2ccc(Oc3[nH]nnc3C(=O)O)cc2)c(F)n1` [Example 79, 5-(4-(2-fluoro-6-methylpyridin-3-yl)phenoxy)-1H-1,2,3-triazole-4-carboxylic Acid], the IC50 was less than 100 nM.

For `O=C(O)c1nn[nH]c1Oc1ccc(-c2cccc(C(F)(F)F)c2)cc1` [Example 112, 5-((3′-(trifluoromethyl)-[1,1′-biphenyl]-4-yl)oxy)-1H-1,2,3-triazole-4-carboxylic Acid], the IC50 is 100 to 200 nM.

Take `Cc1ncc(-c2cccc(Oc3[nH]nnc3C(=O)O)c2)cn1` [Example 59, 5-(3-(2-methylpyrimidin-5-yl)phenoxy)-1H-1,2,3-triazole-4-carboxylic Acid]: the IC50 is less than 100 nM.

`O=C(O)c1nn[nH]c1Oc1ccc(-n2cccn2)cc1` [Example 4, 5-(4-(1H-pyrazol-1-yl)phenoxy)-1H-1,2,3-triazole-4-carboxylic Acid]: the IC50 was less than 100 nM.

On to `O=C(O)c1nn[nH]c1Oc1ccc(-c2ccc(C3CC(F)(F)C3)cc2)cc1` [Example 127, 5-((4′-(3,3-difluorocyclobutyl)-[1,1′-biphenyl]-4-yl)oxy)-1H-1,2,3-triazole-4-carboxylic Acid], for which the IC50 lay in the range of 100 to 200 nM.

Turning to `CN(C)c1cccc(Oc2[nH]nnc2C(=O)O)c1` [Example 58, 5-(3-(dimethylamino)phenoxy)-1H-1,2,3-triazole-4-carboxylic Acid], the IC50 is less than 100 nM.

Turning to `O=C(O)c1nn[nH]c1Oc1ccc(F)cc1` [Example 9, 5-(4-fluorophenoxy)-1H-1,2,3-triazole-4-carboxylic Acid Sodium Salt], the IC50 was greater than 200 nM.

Consider `N#Cc1ccc(-c2ccc(Oc3[nH]nnc3C(=O)O)cn2)cc1` [Example 55, 5-((6-(4-cyanophenyl)pyridin-3-yl)oxy)-1H-1,2,3-triazole-4-carboxylic Acid], for which the IC50 was less than 100 nM.

Regarding `O=C(O)c1nn[nH]c1Sc1ccc(-c2cccnc2F)cc1` [Example 62, 5-((4-(2-fluoropyridin-3-yl)phenyl)thio)-1H-1,2,3-triazole-4-carboxylic Acid], the IC50 was 100 to 200 nM.

On to `COc1ccc(-c2ccc(Oc3[nH]nnc3C(=O)O)cc2OC)c(OC)n1` [Example 91, 5-(4-(2,6-dimethoxypyridin-3-yl)-3-methoxyphenoxy)-1H-1,2,3-triazole-4-carboxylic Acid], for which the IC50 was less than 100 nM.

Take `CC(C)c1ccc(-c2ccc(Oc3[nH]nnc3C(=O)O)cc2)cc1` [Example 32, 5-((4′-isopropyl-[1,1′-biphenyl]-4-yl)oxy)-1H-1,2,3-triazole-4-carboxylic Acid]: the IC50 is less than 100 nM.

As to `Cc1ccc(-c2ccc(Oc3[nH]nnc3C(=O)O)cc2C)c(F)n1` [Example 78, 5-(4-(2-fluoro-6-methylpyridin-3-yl)-3-methylphenoxy)-1H-1,2,3-triazole-4-carboxylic Acid], the IC50 was less than 100 nM.

Regarding `O=C(O)c1nn[nH]c1Oc1ccc(C2CC2(F)F)cc1` (stereo not drawn) [Example 130, 5-(4-(2,2-difluorocyclopropyl)phenoxy)-1H-1,2,3-triazole-4-carboxylic Acid], the IC50 is greater than 200 nM.

On to `O=C(O)c1nn[nH]c1Oc1ccc(C2CCC(F)(F)C2)cc1` (stereo not drawn) [Example 131, 5-(4-(3,3-Difluorocyclopentyl)phenoxy)-1H-1,2,3-triazole-4-carboxylic Acid], for which the IC50 fell in the range of 100 to 200 nM.

On to `N#Cc1ccc(-c2ccc(Oc3nn[nH]c3C(=O)O)cc2)cc1` [Example 29, 5-((4′-cyano-[1,1′-biphenyl]-4-yl)oxy)-1H-1,2,3-triazole-4-carboxylic Acid], for which the IC50 was 100 to 200 nM.

For `O=C(O)c1nn[nH]c1Oc1ccc(Br)cc1` [Example 6, 5-(4-bromophenoxy)-1H-1,2,3-triazole-4-carboxylic Acid], the IC50 is less than 100 nM.

On to `Cc1cc(-c2ccc(Oc3[nH]nnc3C(=O)O)cc2)ccn1` [Example 81, 5-(4-(2-methylpyridin-4-yl)phenoxy)-1H-1,2,3-triazole-4-carboxylic Acid], for which the IC50 was less than 100 nM.
